Measured values taken from patent publication US12139472B2, “Inhibitors of advanced glycation end products” (priority 2019, dated 2024).

Assay: Pharmacokinetic study for PTG-630 (IV and PO): plasma, whole blood, tissues, urine
Format: in vivo, Sprague Dawley rats
Method: The samples were analyzed in two batches with standards and QCs prepared on rat plasma and rat urine. Analyst® 1.6 (SCIEX) software was used for statistical analysis of bioanalytical data. […] Dose samples collected at 0.083 h-6 h postdose were diluted 4 times with SD rat plasma prior to plating. Twenty-four (24) hours plasma samples were assayed without dilution. […] Two sciatic nerve samples were excluded from analysis, due to the insufficient sample size. […] The 12 non-cannulated animals were arbitrarily assigned to groups upon arrival and housed together throughout the experiment. The animals were acclimated to their designated housing for at least 24 hours before the first day of dosing. […] Blood samples were collected via cannula from IV dosed rats or by cardiac stick from PO dosed rats at the specified time points for sampling pharmacokinetics. Blood was collected into K2EDTA tubes. Tubes were mixed gently after blood collection, chilled and centrifuged at 3000 rpm, 4° C. within 30 minutes upon collection. The samples were centrifuged at 4° C. and the resultant plasma separated. […] Urine from Group 1 was collected via polycarbonate tubes from rats placed in drug metabolism cages. Urine was maintained and room temperature through the collection period.

[1] = PTG-4997 in kidneys after PTG-630 PO

## Cc1ncc(CO)c(-c2ncc[nH]2)c1O [PTG-4997]
[1]
  MRT: 11.6 h
  Tmax: 6 h
  half-life: 2.36 h
Table 2, for PTG-4997 (metabolite) after PTG-630 IV 5 mg/kg, plasma, 0.083 h postdose, individual animals
  PTG-4997 (metabolite) concentration: <BLQ
Table 2, for PTG-4997 (metabolite) after PTG-630 IV 5 mg/kg, plasma, 0.5 h postdose, individual animals, 5 mg/kg
  PTG-4997 (metabolite) concentration: <BLQ
Table 2, for PTG-4997 (metabolite) after PTG-630 IV 5 mg/kg, plasma, 1 h postdose, individual animals
  PTG-4997 (metabolite) concentration: <BLQ
Table 2, for PTG-4997 (metabolite) after PTG-630 IV 5 mg/kg, plasma, 24 h postdose, individual animals
  PTG-4997 (metabolite) concentration: <BLQ
Table 2, for PTG-4997 (metabolite) after PTG-630 PO 100 mg/kg, brain, 0.5 h postdose, Mean
  PTG-4997 (metabolite) concentration: <BLQ
Table 2, for PTG-4997 (metabolite) after PTG-630 PO 100 mg/kg, brain, 0.5 h postdose, individual animals
  PTG-4997 (metabolite) concentration: <BLQ
Table 2, for PTG-4997 (metabolite) after PTG-630 PO 100 mg/kg, brain, 1 h postdose, Mean
  PTG-4997 (metabolite) concentration: <BLQ
Table 2, for PTG-4997 (metabolite) after PTG-630 PO 100 mg/kg, brain, 1 h postdose, individual animals
  PTG-4997 (metabolite) concentration: <BLQ
Table 2, for PTG-4997 (metabolite) after PTG-630 PO 100 mg/kg, brain, 2 h postdose, Mean
  PTG-4997 (metabolite) concentration: <BLQ
Table 2, for PTG-4997 (metabolite) after PTG-630 PO 100 mg/kg, brain, 2 h postdose, individual animals
  PTG-4997 (metabolite) concentration: <BLQ
Table 2, for PTG-4997 (metabolite) after PTG-630 PO 100 mg/kg, brain, 4 h postdose, Mean
  PTG-4997 (metabolite) concentration: <BLQ
Table 2, for PTG-4997 (metabolite) after PTG-630 PO 100 mg/kg, brain, 4 h postdose, individual animals
  PTG-4997 (metabolite) concentration: <BLQ
Table 2, for PTG-4997 (metabolite) after PTG-630 PO 100 mg/kg, brain, 6 h postdose, Mean
  PTG-4997 (metabolite) concentration: <BLQ
Table 2, for PTG-4997 (metabolite) after PTG-630 PO 100 mg/kg, brain, 6 h postdose, individual animals
  PTG-4997 (metabolite) concentration: <BLQ
Table 2, for PTG-4997 (metabolite) after PTG-630 PO 100 mg/kg, brain, 24 h postdose, Mean
  PTG-4997 (metabolite) concentration: <BLQ
Table 2, for PTG-4997 (metabolite) after PTG-630 PO 100 mg/kg, brain, 24 h postdose, individual animals
  PTG-4997 (metabolite) concentration: <BLQ
Table 2, for PTG-4997 (metabolite) after PTG-630 PO 100 mg/kg, kidney, 0.5 h postdose, Mean
  PTG-4997 (metabolite) concentration: 86.5 ng/mL
Table 2, for PTG-4997 (metabolite) after PTG-630 PO 100 mg/kg, kidney, 1 h postdose, Mean
  PTG-4997 (metabolite) concentration: 0 ng/mL
Table 2, for PTG-4997 (metabolite) after PTG-630 PO 100 mg/kg, kidney, 2 h postdose, Mean
  PTG-4997 (metabolite) concentration: 81 ng/mL
Table 2, for PTG-4997 (metabolite) after PTG-630 PO 100 mg/kg, kidney, 4 h postdose, Mean
  PTG-4997 (metabolite) concentration: 128 ng/mL
Table 2, for PTG-4997 (metabolite) after PTG-630 PO 100 mg/kg, kidney, 6 h postdose, Mean
  PTG-4997 (metabolite) concentration: 182.5 ng/mL
Table 2, for PTG-4997 (metabolite) after PTG-630 PO 100 mg/kg, kidney, 24 h postdose, Mean
  PTG-4997 (metabolite) concentration: 106 ng/mL
Table 2, for PTG-4997 (metabolite) after PTG-630 PO 100 mg/kg, liver, 0.5 h postdose, Mean
  PTG-4997 (metabolite) concentration: <BLQ
Table 2, for PTG-4997 (metabolite) after PTG-630 PO 100 mg/kg, liver, 0.5 h postdose, individual animals
  PTG-4997 (metabolite) concentration: <BLQ
Table 2, for PTG-4997 (metabolite) after PTG-630 PO 100 mg/kg, liver, 1 h postdose, Mean
  PTG-4997 (metabolite) concentration: <BLQ
Table 2, for PTG-4997 (metabolite) after PTG-630 PO 100 mg/kg, liver, 1 h postdose, individual animals
  PTG-4997 (metabolite) concentration: <BLQ
Table 2, for PTG-4997 (metabolite) after PTG-630 PO 100 mg/kg, liver, 2 h postdose, Mean
  PTG-4997 (metabolite) concentration: <BLQ
Table 2, for PTG-4997 (metabolite) after PTG-630 PO 100 mg/kg, liver, 2 h postdose, individual animals
  PTG-4997 (metabolite) concentration: <BLQ
Table 2, for PTG-4997 (metabolite) after PTG-630 PO 100 mg/kg, liver, 4 h postdose, Mean
  PTG-4997 (metabolite) concentration: <BLQ
Table 2, for PTG-4997 (metabolite) after PTG-630 PO 100 mg/kg, liver, 4 h postdose, individual animals
  PTG-4997 (metabolite) concentration: <BLQ
Table 2, for PTG-4997 (metabolite) after PTG-630 PO 100 mg/kg, liver, 6 h postdose, Mean
  PTG-4997 (metabolite) concentration: <BLQ
Table 2, for PTG-4997 (metabolite) after PTG-630 PO 100 mg/kg, liver, 6 h postdose, individual animals
  PTG-4997 (metabolite) concentration: <BLQ
Table 2, for PTG-4997 (metabolite) after PTG-630 PO 100 mg/kg, liver, 24 h postdose, Mean
  PTG-4997 (metabolite) concentration: <BLQ
Table 2, for PTG-4997 (metabolite) after PTG-630 PO 100 mg/kg, liver, 24 h postdose, individual animals
  PTG-4997 (metabolite) concentration: <BLQ
Table 2, for PTG-4997 (metabolite) after PTG-630 PO 100 mg/kg, muscle, 0.5 h postdose, Mean
  PTG-4997 (metabolite) concentration: <BLQ
Table 2, for PTG-4997 (metabolite) after PTG-630 PO 100 mg/kg, muscle, 0.5 h postdose, individual animals
  PTG-4997 (metabolite) concentration: <BLQ
Table 2, for PTG-4997 (metabolite) after PTG-630 PO 100 mg/kg, muscle, 1 h postdose, Mean
  PTG-4997 (metabolite) concentration: <BLQ
Table 2, for PTG-4997 (metabolite) after PTG-630 PO 100 mg/kg, muscle, 1 h postdose, individual animals
  PTG-4997 (metabolite) concentration: <BLQ
